The results in this text go back to ChEMBL document CHEMBL3414421, “Structure-activity relationship studies and in vivo activity of guanidine-based sphingosine kinase inhibitors: discovery of SphK1- and SphK2-selective inhibitors” (J Med Chem, 2015).

By half-life is commonly meant the time needed for the level to fall by half in the phase considered. One may read the Inhibition as how much of the control response was suppressed. For orientation: pKi means the Ki on a negative log10 scale, so that one unit is a factor of ten.

pKi: −log10 of the molar value. Calls of active or inactive are those of the source.

In data set [1] the target is T1, Sphingosine kinase 2 (Homo sapiens) (UniProt Q9NRA0).
T1 sequence (whole entry): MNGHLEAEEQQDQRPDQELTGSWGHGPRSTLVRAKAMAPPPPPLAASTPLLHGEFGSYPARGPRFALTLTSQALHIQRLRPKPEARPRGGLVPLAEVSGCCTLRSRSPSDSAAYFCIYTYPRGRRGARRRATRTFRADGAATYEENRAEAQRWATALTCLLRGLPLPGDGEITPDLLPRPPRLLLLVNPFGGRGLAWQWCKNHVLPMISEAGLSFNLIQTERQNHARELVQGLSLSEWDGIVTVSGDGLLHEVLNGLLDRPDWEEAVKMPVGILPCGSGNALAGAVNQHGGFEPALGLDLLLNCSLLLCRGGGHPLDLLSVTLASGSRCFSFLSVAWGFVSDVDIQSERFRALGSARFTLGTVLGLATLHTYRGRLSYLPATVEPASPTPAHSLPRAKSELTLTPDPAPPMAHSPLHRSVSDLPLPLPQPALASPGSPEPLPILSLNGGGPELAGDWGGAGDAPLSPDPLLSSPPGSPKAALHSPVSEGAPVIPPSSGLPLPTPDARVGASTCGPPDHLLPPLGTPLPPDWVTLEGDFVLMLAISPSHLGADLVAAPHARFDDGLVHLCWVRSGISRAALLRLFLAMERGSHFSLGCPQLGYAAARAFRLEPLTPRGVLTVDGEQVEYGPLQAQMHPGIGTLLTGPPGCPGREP
Kind of data set: Inhibition of human recombinant SphK2 expressed in Sf9 cells assessed as enzyme activity measured as radiolabeled products using 10 uM sphingosine and 10 uM gamma[32P]ATP at 1 uM by liquid scintillation counting. Details: scale not given: the % may be the effect or the level left.

Data set [2] in a line: Half life in rat. It counts as ADME, organism-based. The note with it: in vivo.
Data set [3] relates to U-937. Kind of data set: Reduction in S1P level in human U937 cells at 100 nM to 1 uM after 2 hrs incubation by LC-MS-MS analysis. It counts as functional, cell-based.
In data set [4] the test system is U-937. Kind of data set: Decrease in S1P level in human U937 cells at 100 nM after 2 hrs incubation by LC-MS-MS analysis.
A short description of data set [5]: Drug uptake in human U937 cells assessed as accumulation in cells at 100 nM to 1 uM after 2 hrs incubation by LC-MS-MS analysis. The class given is ADME, cell-based. The note with it: u-937, 2 h, 0.1 µM.
The target of a further data set is T2, Sphingosine kinase 2 (Homo sapiens, UniProt Q9NRA0).
T2 sequence (Q9NRA0 whole entry): T1 sequence (whole entry)
Put plainly: biochemical.

In data set [6] the test system is Mus musculus. Put plainly: Increase in Sph level in C57BL6/j mouse blood at 10 mg/kg, ip up to 8 hrs by LC-MS-MS analysis relative to control. The class given is functional, organism-based. Details: dose 10 mg/kg.
Data set [7] has as its system U-937. Kind of data set: Increase in sphingosine level in human U937 cells at 100 nM to 1 uM after 2 hrs incubation by LC-MS-MS analysis. The class given is functional, cell-based.
In data set [8] the target is T1, Sphingosine kinase 2 (Homo sapiens). The conditions noted are these: U-937, 3 uM.
Description: Inhibition of SphK2 in human U937 cells assessed as decrease in phosphorylated FTY720 substrate at 3 uM after 2 hrs incubation by LC-MS-MS analysis
Data set [9] deals with Mus musculus. Put plainly: Increase in S1p level in C57BL6/j mouse blood at 10 mg/kg, ip up to 8 hrs by LC-MS-MS analysis relative to control. The conditions noted are these: route intraperitoneal. It counts as functional.
Data set [10] in a line: Cytotoxicity against human U937 cells assessed as cell viability up to 3 uM after 24 hrs by trypan blue dye assay. The class given is cell-based. The note with it: u-937, 24 h.
Another data set can be described thus: in vivo. The conditions noted are these: mouse, ip, 10 mg/kg.

Description for in vivo: Half life in mouse at 10 mg/kg, ip

Regarding `CCCCCCCCc1ccc(-c2noc([C@@H]3CCCCN3C(=N)N)n2)cc1`, the Activity in data set [1] was found to be 92%.
`CCCCCCCCc1ccc(-c2noc([C@@H]3CCN(C(=N)N)C3)n2)cc1`: in data set [1], the Activity was found to be 95%.
Same read-out and setting: next, `CCCCCCCCc1ccc(-c2noc(C3(NC(=N)N)CC3)n2)cc1`: 98%; `CCCCCCCCc1ccc(-c2noc([C@H](CO)NC(=N)N)n2)cc1`: 99%; `CCCCCCCCc1ccc(-c2noc(CC[C@@H]3CCCN3C(=N)N)n2)cc1`: 100%.
As for `CCCCCCCCc1ccc(-c2noc(CN(C)C(=N)N)n2)cc1`, the Activity in data set [1] came to 90%.
In turn, `C[C@@H](NC(=O)[C@H]1NCC[C@@H]1O)c1ccc(-c2noc(CCC3CCCC3)n2)cc1` showed a half-life in [2] of 4.3 h.
Consider `CCCCCCCCc1ccc(-c2noc(C[C@@H]3CCCN3C(=N)N)n2)cc1.Cl`, for which, in the data set with U-937 [3], the inhibition entry was “Active”. In addition, the Inhibition in the data set on U-937 [4] was determined as 90%. In addition, the Drug uptake entry in data set [5] was “Active”.
Take `CCCCCCCCc1ccc(-c2noc([C@H]3CCCN3C(=N)N)n2)cc1`: the Activity in data set [1] came to 90%.
Regarding `CCCCCCCCc1ccc(-c2noc([C@@H]3C[C@H](O)CN3C(=N)N)n2)cc1`, the Activity in data set [1] was 90%.
Regarding `CCCCCCCCc1ccc(-c2noc(CNC(=N)N)n2)cc1`, the Activity in [1] turned out to be 90%.
As for `CCCCCCCCc1ccc(-c2nnc([C@@H]3CCCN3C(=N)N)o2)cc1`, the Activity in [1] was 91%.
`CCCCCCCCc1ccc(-c2noc([C@@H](NC(=N)N)C(C)C)n2)cc1`: the Activity in data set [1] came to 85%.
Same read-out and setting: as for `CCCCCCCCc1ccc(C(=O)NC[C@@H]2CCCN2C(=N)N)cc1`, the figure is 75%.
On to `CCCCCCCCc1ccc(-c2nc([C@@H]3CCCN3C(=N)N)no2)cc1`, for which the Activity in data set [1] is 42%. Also, the pKi at Sphingosine kinase 2 was 5.96.
With `CCCCCCCCc1ccc(-c2noc(C3CN(C(=N)N)C3)n2)cc1`, in data set [1], the Activity was 96%.
In the case of `CCCCCCCCc1ccc(CC[C@](N)(CO)COC)cc1`, the pKi on Sphingosine kinase 2 is 4.78.
Consider `CCCCCCCCc1ccc(-c2noc([C@@H]3C[C@@H](O)CN3C(=N)N)n2)cc1`, for which the Activity in data set [1] stood at 70%. Besides, the negative logarithm of the Ki (pKi) at Sphingosine kinase 2 is 5.28.
Take `CCCCCCCCc1ccc(-c2noc([C@@H]3C=CCN3C(=N)N)n2)cc1`: the Activity in data set [1] was found to be 96%.
On Sphingosine kinase 2, `CCCCCc1ccc(/C=C/[C@H](O)[C@@H](CO)NC)cc1` gave a pKi of less than 4.00.
For the compound `CCCCCCCCc1ccc(-c2noc([C@@H]3CCN3C(=N)N)n2)cc1.Cl`, the inhibition entry (in the data set with U-937 [3]; in data set [8]) was “Active” in each case. Moreover, the result with Mus musculus [6] and in the data set with U-937 [7] was Active. Moreover, the “fold change (FC)” value with Mus musculus [9] is reported as 2. Besides, the values for the Activity result in [10] and in data set [1] were “Non-toxic” and 56%, respectively. Besides, the pKi on Sphingosine kinase 2 is 5.92. For the same compound, in data set [5], the Drug uptake result was “Active”.
With `OC[C@H]1C[C@@H](O)CCN1CCc1ccc(Nc2nc(-c3ccc(C(F)(F)F)cc3)cs2)cc1`, in “in vivo”, the half-life was 6.5 h.
As to `CCCCCCCCc1ccc(-c2noc([C@H](C)NC(=N)N)n2)cc1`, in data set [1], the Activity is 94%.
With `CCCCCCCCc1ccc(-c2noc([C@@H]3[C@@H](O)CCN3C(=N)N)n2)cc1`, the Activity in [1] stood at 65%.
With `Oc1ccc(Nc2nc(-c3ccc(Cl)cc3)cs2)cc1`, the pKi at Sphingosine kinase 2 is 4.30.
As for `CCCCCCCCc1ccc(CNC(=O)[C@@H]2CCCN2C(=N)N)cc1`, the Activity in data set [1] came out at 95%.
With `CCCCCCCCc1ccc(-c2noc([C@@H]3CCCN3C(=N)N)n2)cc1.Cl`, the Activity in data set [1] came out at 44%. This compound gave a pKi at Sphingosine kinase 2 of 5.89.
Regarding `CCCCCCCCCCc1ccc(NC(=O)[C@@H]2CCCN2C(=N)N)cc1`, the Activity in data set [1] is 83%.
Regarding `CCCCCCCCCCc1ccc(NC(=O)[C@H]2CCCN2C(=N)N)cc1`, the Activity in [1] came to 100%.
